Test results as given in patent US11780830B2, “Triazolone derivatives or salts thereof and pharmaceutical compositions comprising the same” (YUHAN CORPORATION, priority 2018, dated 2023).
Structures can show the parent of a compound that is named as a salt.

Assays:
Type in all cases: biochemical
[1] = molecular target: T1, recombinant human MAO-A (monoamine oxidase-A) (Homo sapiens, UniProt P21397); test: Activity on recombinant human MAO-A, method similar to the VAP-1 assay; settings: substrate 0.5 mM tyramine; read-out: Inhibitory Activity (IC50, nM) MAO-A
T1 construct: purchased Sigma-Aldrich
T1 sequence (P21397 1-527): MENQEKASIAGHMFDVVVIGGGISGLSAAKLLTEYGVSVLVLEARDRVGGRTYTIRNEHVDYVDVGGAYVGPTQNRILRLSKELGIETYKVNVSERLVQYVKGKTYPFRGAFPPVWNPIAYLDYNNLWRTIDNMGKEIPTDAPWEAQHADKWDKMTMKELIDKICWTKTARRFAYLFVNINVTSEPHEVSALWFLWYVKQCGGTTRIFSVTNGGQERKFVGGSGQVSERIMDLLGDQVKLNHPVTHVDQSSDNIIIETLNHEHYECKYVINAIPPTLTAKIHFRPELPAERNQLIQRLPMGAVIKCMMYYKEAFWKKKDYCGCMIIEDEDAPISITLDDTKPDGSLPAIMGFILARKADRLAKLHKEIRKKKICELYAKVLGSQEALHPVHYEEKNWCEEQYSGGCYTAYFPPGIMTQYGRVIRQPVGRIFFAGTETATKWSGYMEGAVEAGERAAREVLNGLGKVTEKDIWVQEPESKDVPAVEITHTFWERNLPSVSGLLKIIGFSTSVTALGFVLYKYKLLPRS
How it was run: (§1)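 Enzyme in pH 7.4 phosphate buffer; 30 min, 37° C with compound (DMSO <1%); start with 200 uM Amplex Red + 1 U/mL HRP + tyramine 0.5 mM (MAO-A) or benzylamine 1 mM (MAO-B); kinetic read ex 544/em 590, 1-2 h; % rate decrease vs DMSO control → IC50, 4-parameter fit.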

[2] = molecular target: T2, recombinant human DAO (diamine oxidase) (Homo sapiens, UniProt P19801); test: Activity on recombinant human DAO, method similar to the VAP-1 assay; settings: substrate 1 mM putrescine; read-out: Inhibitory Activity (IC50, nM) DAO
T2 construct: purchased R&D systems
T2 sequence (P19801 20-751): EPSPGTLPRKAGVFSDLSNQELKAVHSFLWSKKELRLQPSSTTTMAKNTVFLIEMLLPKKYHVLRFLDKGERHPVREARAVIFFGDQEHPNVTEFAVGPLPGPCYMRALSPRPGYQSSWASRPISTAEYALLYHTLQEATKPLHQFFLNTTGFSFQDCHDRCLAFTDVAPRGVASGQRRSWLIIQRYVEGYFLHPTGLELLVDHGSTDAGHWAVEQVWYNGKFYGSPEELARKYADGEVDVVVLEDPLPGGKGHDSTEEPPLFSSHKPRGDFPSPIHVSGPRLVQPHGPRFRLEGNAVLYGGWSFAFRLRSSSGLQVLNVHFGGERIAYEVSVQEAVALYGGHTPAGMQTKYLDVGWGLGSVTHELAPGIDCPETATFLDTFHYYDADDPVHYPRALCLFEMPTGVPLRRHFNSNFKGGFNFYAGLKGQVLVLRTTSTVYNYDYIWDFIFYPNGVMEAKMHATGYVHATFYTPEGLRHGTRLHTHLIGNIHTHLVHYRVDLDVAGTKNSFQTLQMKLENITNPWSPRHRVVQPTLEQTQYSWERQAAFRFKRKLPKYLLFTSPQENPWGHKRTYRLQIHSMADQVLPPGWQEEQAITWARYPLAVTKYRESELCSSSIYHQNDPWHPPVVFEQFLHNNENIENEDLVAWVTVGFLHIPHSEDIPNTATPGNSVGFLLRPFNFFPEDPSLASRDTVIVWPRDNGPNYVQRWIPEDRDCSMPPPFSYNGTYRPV
How it was run: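 Inhibition of recombinant human diamine oxidase (DAO, R&D systems) was assessed by the same approach as the VAP-1 assay, using 1 mM putrescine as substrate. Hydrogen peroxide formed was detected through an HRP-coupled Amplex Red reaction yielding fluorescent resorufin, read at 544 nm excitation and 590 nm emission. IC50 values came from four-parameter logistic fitting in GraphPad Prism.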

[3] = molecular target: T3, recombinant human MAO-B (monoamine oxidase-B) (Homo sapiens, UniProt P27338); test: Activity on recombinant human MAO-B, method similar to the VAP-1 assay; settings: substrate 1 mM benzylamine; read-out: Inhibitory Activity (IC50, nM) MAO-B
T3 construct: purchased Sigma-Aldrich
T3 sequence (P27338 1-520): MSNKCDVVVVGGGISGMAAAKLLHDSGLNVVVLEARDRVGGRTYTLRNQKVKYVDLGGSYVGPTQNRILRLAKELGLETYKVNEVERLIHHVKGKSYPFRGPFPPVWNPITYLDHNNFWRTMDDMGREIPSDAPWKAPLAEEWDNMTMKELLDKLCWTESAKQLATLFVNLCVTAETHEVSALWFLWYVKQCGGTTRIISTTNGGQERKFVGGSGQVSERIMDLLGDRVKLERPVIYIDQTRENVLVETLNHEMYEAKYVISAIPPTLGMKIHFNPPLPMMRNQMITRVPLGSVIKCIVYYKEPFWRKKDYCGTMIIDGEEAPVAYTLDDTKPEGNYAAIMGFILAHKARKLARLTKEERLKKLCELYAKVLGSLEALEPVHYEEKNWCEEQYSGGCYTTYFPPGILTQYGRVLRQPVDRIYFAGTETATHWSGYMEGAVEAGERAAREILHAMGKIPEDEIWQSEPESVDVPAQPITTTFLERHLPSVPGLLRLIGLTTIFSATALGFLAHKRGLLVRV
How it was run: as §1

[4] = molecular target: T4, recombinant human VAP-1 (Homo sapiens, UniProt Q16853); test: Activity on recombinant human VAP-1, HRP-coupled Amplex Red hydrogen peroxide assay; settings: substrate 1 mM benzylamine; compound incubated with enzyme at 37° C. for 30 minutes; pH 7.4; read-out: Inhibitory Activity (IC50, nM) human VAP-1
T4 construct: purchased R&D systems
T4 sequence (Q16853 1-763): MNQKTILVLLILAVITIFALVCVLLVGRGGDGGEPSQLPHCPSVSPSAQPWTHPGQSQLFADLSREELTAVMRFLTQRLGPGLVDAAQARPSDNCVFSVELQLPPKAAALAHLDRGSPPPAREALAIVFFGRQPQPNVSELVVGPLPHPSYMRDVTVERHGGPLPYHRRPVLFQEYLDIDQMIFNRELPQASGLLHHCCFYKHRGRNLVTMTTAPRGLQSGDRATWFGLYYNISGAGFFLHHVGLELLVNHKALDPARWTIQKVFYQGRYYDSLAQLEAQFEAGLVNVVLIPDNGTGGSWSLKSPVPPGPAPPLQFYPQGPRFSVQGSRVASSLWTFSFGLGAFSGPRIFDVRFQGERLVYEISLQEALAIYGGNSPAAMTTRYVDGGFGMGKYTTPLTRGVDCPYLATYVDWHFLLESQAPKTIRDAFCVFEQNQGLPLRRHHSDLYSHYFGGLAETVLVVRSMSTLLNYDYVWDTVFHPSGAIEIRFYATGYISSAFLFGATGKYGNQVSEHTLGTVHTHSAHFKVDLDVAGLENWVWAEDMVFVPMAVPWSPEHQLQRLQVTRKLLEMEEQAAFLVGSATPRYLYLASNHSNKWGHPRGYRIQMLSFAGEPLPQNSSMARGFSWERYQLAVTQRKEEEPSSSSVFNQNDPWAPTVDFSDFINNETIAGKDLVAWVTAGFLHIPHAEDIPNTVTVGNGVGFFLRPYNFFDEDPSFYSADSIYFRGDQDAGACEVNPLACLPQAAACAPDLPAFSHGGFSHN
How it was run: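 Enzyme in 50 mM sodium phosphate (pH 7.4) is exposed to test compound for 30 min at 37 °C. Benzylamine (1 mM) with HRP and Amplex Red then starts the reaction, and the fluorescence rate, relative to a DMSO-only control, gives IC50.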

Row | IC50 [1] [nM] | IC50 [2] [nM] | IC50 [3] [nM] | IC50 [4] [nM] | SMILES
1 | 39600 | 67 | 247 | 0.89 | NC/C(=C\F)Cn1ncn(Cc2ccc(-c3ccc(-c4noc(C5CC5)n4)cc3)s2)c1=O [Example 35, 2-[(2E)-2-(aminomethyl)-3-fluoroprop-2-en-1-yl]-4-(5-[4-(5-cyclopropyl-1,2,4-oxadiazol-3-yl)phenyl]thiophen-2-ylmethyl)-2,4-dihydro-3H-1,2,4-triazol-3-one hydrochloride]
2 | > 100000 | 344 | 101 | 0.7 | NC/C(=C\F)Cn1ncn(Cc2ccc(-c3cccc(-c4noc(C5CC5)n4)c3)s2)c1=O [Example 36, 2-[(2E)-2-(aminomethyl)-3-fluoroprop-2-en-1-yl]-4-(5-[3-(5-cyclopropyl-1,2,4-oxadiazol-3-yl)phenyl]thiophen-2-ylmethyl)-2,4-dihydro-3H-1,2,4-triazol-3-one hydrochloride]
3 | 5590 | 120 | 590 | 0.76 | CC(C)c1nc(-c2ccc(-c3ccc(Cn4cnn(C/C(=C/F)CN)c4=O)s3)cc2)no1 [Example 37, 2-[(2E)-2-(aminomethyl)-3-fluoroprop-2-en-1-yl]-4-[(5-4-[5-(propan-2-yl)-1,2,4-oxadiazol-3-yl]phenylthiophen-2-yl)methyl]-2,4-dihydro-3H-1,2,4-triazol-3-one hydrochloride]
4 | 7900 | 2400 | 1030 | 2.8 | CC(C)c1nc(-c2cccc(-c3ccc(Cn4cnn(C/C(=C/F)CN)c4=O)s3)c2)no1 [Example 38, 2-[(2E)-2-(aminomethyl)-3-fluoroprop-2-en-1-yl]-4-[(5-3-[5-(propan-2-yl)-1,2,4-oxadiazol-3-yl]phenylthiophen-2-yl)methyl]-2,4-dihydro-3H-1,2,4-triazol-3-one hydrochloride]
5 | > 100000 | 370 | 110 | 0.6 | NC/C(=C\F)Cn1ncn(Cc2ccc(-c3ccc(-c4ccon4)cc3)s2)c1=O [Example 40, 2-[(2E)-2-(aminomethyl)-3-fluoroprop-2-en-1-yl]-4-(5-[4-(1,2-oxazol-3-yl)phenyl]thiophen-2-ylmethyl)-2,4-dihydro-3H-1,2,4-triazol-3-one hydrochloride]
6 | > 100000 | 570 | 5100 | 0.7 | CN(C)c1ccc(-c2ccc(Cn3cnn(C/C(=C/F)CN)c3=O)s2)cn1 [Example 42, 2-[(2E)-2-(aminomethyl)-3-fluoroprop-2-en-1-yl]-4-(5-[6-(dimethylamino)pyridin-3-yl]thiophen-2-ylmethyl)-2,4-dihydro-3H-1,2,4-triazol-3-one hydrochloride]

Continued, compound first:

Row | SMILES | IC50 [1] [nM] | IC50 [2] [nM] | IC50 [3] [nM] | IC50 [4] [nM]
7 | NC/C(=C\F)Cn1ncn(Cc2ccc(-c3cccc(S(=O)(=O)N4CCCC4)c3)s2)c1=O [Example 28, 2-[(2E)-2-(aminomethyl)-3-fluoroprop-2-en-1-yl]-4-(5-[3-(pyrrolidin-1-ylsulfonyl)phenyl]thiophen-2-ylmethyl)-2,4-dihydro-3H-1,2,4-triazol-3-one hydrochloride] | > 100000 | 120 | 200 | 0.5
8 | NC/C(=C\F)Cn1ncn(Cc2ccc(-c3ccc(S(=O)(=O)N4CCOCC4)cc3)s2)c1=O [Example 29, 2-[(2E)-2-(aminomethyl)-3-fluoroprop-2-en-1-yl]-4-(5-[4-(morpholin-4-ylsulfonyl)phenyl]thiophen-2-ylmethyl)-2,4-dihydro-3H-1,2,4-triazol-3-one hydrochloride] | > 100000 | 150 | > 10000 | 1.4
9 | NC/C(=C\F)Cn1ncn(Cc2ccc(-c3ccc(-c4nnc[nH]4)cc3)s2)c1=O [Example 31, 2-[(2E)-2-(aminomethyl)-3-fluoroprop-2-en-1-yl]-4-(5-[4-(4H-1,2,4-triazol-3-yl)phenyl]thiophen-2-ylmethyl)-2,4-dihydro-3H-1,2,4-triazol-3-one] | > 100000 | 120 | 73 | 0.67
10 | NC/C(=C\F)Cn1ncn(Cc2ccc(-c3cccc(-c4nnc[nH]4)c3)s2)c1=O [Example 33, 2-[(2E)-2-(aminomethyl)-3-fluoroprop-2-en-1-yl]-4-(5-[3-(4H-1,2,4-triazol-3-yl)phenyl]thiophen-2-ylmethyl)-2,4-dihydro-3H-1,2,4-triazol-3-one] | > 100000 | 790 | 600 | 0.8
11 | NC/C(=C\F)Cn1ncn(Cc2ccc(-c3cccc(-c4ncon4)c3)s2)c1=O [Example 34, 2-[(2E)-2-(aminomethyl)-3-fluoroprop-2-en-1-yl]-4-(5-[3-(1,2,4-oxadiazol-3-yl)phenyl]thiophen-2-ylmethyl)-2,4-dihydro-3H-1,2,4-triazol-3-one] | > 100000 | 660 | 116 | 2
